Patent US7521423B2, “Exendin pharmaceutical compositions” (Amylin Pharmaceuticals, Inc., priority 1996, dated 2009)
Entries after “also recorded” stand apart in the source; their conditions may differ. No end group written: not given here.

What was measured:
[1] = test system: gastric emptying; experiment: Gastric emptying inhibition by exendin-4 analogs, methods of Example 1 (Example 2); assay type: in vivo, Male HSD rats; conditions: for ED50 of inhibition of gastric emptying: Example 2, FIG. 3; for ED50 of inhibition of gastric emptying / EC50 (inhibition of gastric emptying): 20 min after gavage; for EC50 (inhibition of gastric emptying): Example 2, Table II; for effect on gastric emptying (in words): Example 2, dose-response study
Source text: Twenty minutes after gavage, rats were anesthetized using 5% halothane, the stomach exposed and clamped at the pyloric and lower esophageal sphincters using artery forceps, removed and opened into an alkaline solution which was made up to a fixed volume. Stomach content was derived from the intensity of the phenol red in the alkaline solution, measured by absorbance at a wavelength of 560 nm. In separate experiments on 7 rats, the stomach and small intestine were both excised and opened into an alkaline solution. […] To account for a maximal dye recovery of less than 100%, percent of stomach contents remaining after 20 min were expressed as a fraction of the gastric contents recovered from control rats sacrificed immediately after gavage in the same experiment. Percent gastric contents remaining =(absorbance at 20 min)/(absorbance at 0 mm)×100.

[2] = test system: gastric emptying; experiment: Gastric emptying in conscious rats, retention of phenol red methyl cellulose gel 20 min after gavage (Example 1); assay type: in vivo, Male Harlan Sprague Dawley (HSD) rats; conditions: for ED50 of inhibition of gastric emptying: Example 1, FIG. 2, subcutaneous injection, 20 min after gavage; for effect on gastric emptying (in words): Example 1, dose-response study; for % remaining (percent of gastric contents remaining 20 minutes after gavage): normal rats
Experimental: As described in Example 1, gastric emptying was measured in normal Sprague Dawley rats using the retention of an acaloric methylcellulose gel containing Phenol Red delivered by gavage. Dye content in stomachs removed after sacrifice 20 minutes later was determined spectroscopically, and was compared to that in rats sacrificed immediately after gavage to assess emptying.
This experiment followed a modification of the method of Scarpignato, et al., Arch. Int. Pharmacodyn. Ther. 246:286-94 (1980).
Male Harlan Sprague Dawley (HSD) rats were used. All animals were housed at 22.7±0.8 C in a 12:12 hour light:dark cycle (experiments being performed during the light cycle) and were fed and watered ad libitum (Diet LM-485, Teklad, Madison, Wis.).
The determination of gastric emptying by the method described below was performed after a fast of ˜20 hours to ensure that the stomach contained no chyme that would interfere with spectrophotometric absorbance measurements.
(§1) Conscious rats received by gavage, 1.5 ml of an acaloric gel containing 1.5% methyl cellulose (M-0262, Sigma Chemical Co, St Louis, Mo.) and 0.05% phenol red indicator. Twenty minutes after gavage, rats were anesthetized using 5% halothane, the stomach exposed and clamped at the pyloric and lower esophageal sphincters using artery forceps, removed and opened into an alkaline solution which was made up to a fixed volume. Stomach content was derived from the intensity of the phenol red in the alkaline solution, measured by absorbance at a wavelength of 560 nm. In separate experiments on 7 rats, the stomach and small intestine were both excised and opened into an alkaline solution. The quantity of phenol red that could be recovered from the upper gastrointestinal tract within 20 minutes of gavage was 89±4%; dye which appeared to bind irrecoverably to the gut luminal surface may have accounted for the balance. To account for a maximal dye recovery of less than 100%, percent of stomach contents remaining after 20 min were expressed as a fraction of the gastric contents recovered from control rats sacrificed immediately after gavage in the same experiment. Percent gastric contents remaining =(absorbance at 20 min)/(absorbance at 0 mm)×100.
In baseline studies, with no drug treatment, gastric emptying over 20 min was determined. […]

[3] = test system: pentagastrin-induced gastric acid secretion; conditions: reported, Gedulin et al. 1997; cited from earlier work
[4] = test system: food intake; conditions: mice, peripheral injection; cited from earlier work
[5] = test system: gastric emptying; experiment: Antagonism by exendin[9-39] of gastric emptying inhibition by exendin-4 and GLP-1[7-36]NH2 (Example 3); assay type: in vivo, rats
Experimental: (sc), n=6; and 0.3 mg exendin[9-39] (sc), n=6 on the retention of gastric contents 20 minutes after gavage. Also shown are saline controls at t=0 and t=20 min. The error bars show standard error of the mean. […] Exendin[9-39] (sc) alone had no effect on gastric emptying.
(iv), n=5 on the retention of gastric contents 20 minutes after gavage. Also shown are saline controls at t+0 and t=20 min. The error bars show standard error of the mean.
(iv), n=3 on the retention of gastric contents 20 minutes after gavage. Also shown are saline controls at t=0 and t=20 min. The error bars show standard error of the mean. […] When injected along with GLP-1[7-36]NH2, exendin[9-39]
as §1
In these studies, exendin[9-39] was give both subcutaneously (sc) and intravenously (iv).

Substance	ED50 of inhibition of gastric emptying [1]	EC50 (inhibition of gastric emptying) [1]	effect on gastric emptying (in words) [1]	ED50 of inhibition of gastric emptying [2]	% remaining (percent of gastric contents remaining 20 minutes after gavage) ([2]; dose 0.010 μg)	% remaining (percent of gastric contents remaining 20 minutes after gavage) ([2]; dose 0.100 μg)	% remaining (percent of gastric contents remaining 20 minutes after gavage) ([2]; dose 0.300 μg)	% remaining (percent of gastric contents remaining 20 minutes after gavage) ([2]; dose 1.000 μg)	% remaining (percent of gastric contents remaining 20 minutes after gavage) ([2]; dose 10.000 μg)	% remaining (percent of gastric contents remaining 20 minutes after gavage) ([2]; dose 100.000 μg)	% remaining (percent of gastric contents remaining 20 minutes after gavage) ([2]; dose 3.000 μg)	also measured
exendin-4 acid	0.12 µg	0.12 µg	potent inhibitors of gastric emptying; also recorded: dose dependently inhibiting gastric emptying	–	–	–	–	–	–	–	–	–
exendin-3	–	–	–	~0.1 µg	58.240 (3) %	70.770 (3) %	86.420 (3) %	95.330 (3) %	101.760 (3) %	103.640 (3) %	–	effect on gastric emptying (in words) ([2]; listed as exendin 3): dose-dependently inhibited gastric emptying; effect on gastric emptying (in words) ([2]; listed as exendin-3): potent inhibitors of gastric emptying
rat amylin (KCNTATCATQRLANFLVRSSNNLGPVLPPTNVGSNTY; ends and bridges not checked; cysteine pairing not given here; UniProt P12969 38-74, looked up) [second positive control for gastric emptying]	–	–	–	–	37.60 (2) %	52.70 (6) %	58.20 (4) %	96.80 (9) %	101.10 (6) %	101.20 (2) %	108.000 (4) %	–
^14Leu, ^25Phe exendin-4	0.29 µg	0.29 µg	potent inhibitors of gastric emptying; also recorded: dose dependently inhibiting gastric emptying	–	–	–	–	–	–	–	–	–
GLP-1[7-36]NH2 [GLP-1 (7-36)NH2]	–	–	–	approximately 9 μg	–	42.00 (7) %	29.60 (7) %	37.20 (9) %	87.90 (11) %	103.60 (7) %	56.60 (10) %	inhibition of pentagastrin-induced gastric acid secretion [3]: inhibitory effect; inhibition of food intake [4]: not observed; effect on retention of gastric contents 20 minutes after gavage ([5]; 10 μg GLP-1[7-36]NH2 (sc) alone, FIGS. 6 and 7): potently inhibited gastric emptying
exendin[9-39]	–	–	–	–	–	–	–	–	–	–	–	effect on gastric emptying ([5]; 0.3 mg exendin[9-39] (sc) alone): no effect; antagonism of the effect of exendin-4 on gastric emptying inhibition ([5]; 0.3 mg exendin[9-39] (sc) plus 1.0 μg exendin-4 (sc), FIG. 4): did not antagonize; antagonism of the effect of exendin-4 on gastric emptying inhibition ([5]; 0.5 mg exendin[9-39] (iv) plus 0.3 μg exendin-4 (sc), FIG. 5): did not antagonize; antagonism of the effect of GLP-1[7-36]NH2 on gastric emptying inhibition ([5]; 0.5 mg exendin[9-39] (iv) plus 10 μg GLP-1[7-36]NH2 (sc), FIG. 7): did not antagonize; antagonism of the effect of GLP-1[7-36]NH2 on gastric emptying inhibition ([5]; 3 mg exendin[9-39] (sc) plus 10 μg GLP-1[7-36]NH2 (sc), FIG. 6): did not antagonize; reversal / block of the effect of exendin-4 on gastric emptying ([5]; exendin[9-39] administered sc or iv, FIGS. 4 and 5): not reversed; also recorded: did not block; block of the effect of GLP-1[7-36]NH2 on gastric emptying ([5]; exendin[9-39] sc or iv, FIGS. 6 and 7): did not block
